Results on one compound are retold here after US9365857B2, “Xylose isomerase and xylitol dehydrogenase combination for xylose fermentation to ethanol and B. fragilis xylose isomerase” (Archer Daniels Midland Company, priority 2010, dated 2016).

Molecules are shown by their SMILES.

One test concerns the target E. coli xylose isomerase (Escherichia coli, UniProt P00944). Description: xylitol inhibition of xylose isomerase activity (E. coli XI). Type of test: biochemical. The conditions noted are these: read-out: E. coli XI activity inhibited. How it is done: (§1) Activity is reported as the percent of activity obtained in the absence of xylitol.
(§2) A distinguishing feature of the B. fragilis isomerases described herein is that enzymes are less inhibited by xylitol than orthologue XI sequences from other organism. […] ID NO: 4 in comparison to its E. coli orthologue. At 12.5 mM xylitol, the E. coli XI activity is >97% inhibited, in contrast to the B. fragilis XI, which retains at least 30% of its activity at the same xylitol concentration.

In test [1] the target is T1, B. fragilis xylose isomerase (SEQ. ID NO: 4) (Bacteroides fragilis, UniProt Q5LCV9).
T1 construct: ID NO: 4 in comparison to its E. coli orthologue
Description: xylitol inhibition of xylose isomerase activity (B. fragilis XI, SEQ. ID NO: 4). The format is biochemical. Particulars: 12.5 mM xylitol; percent of activity obtained in the absence of xylitol. On the procedure:
as §1, §2

T1 sequence (Q5LCV9 whole entry, looked up, natural form): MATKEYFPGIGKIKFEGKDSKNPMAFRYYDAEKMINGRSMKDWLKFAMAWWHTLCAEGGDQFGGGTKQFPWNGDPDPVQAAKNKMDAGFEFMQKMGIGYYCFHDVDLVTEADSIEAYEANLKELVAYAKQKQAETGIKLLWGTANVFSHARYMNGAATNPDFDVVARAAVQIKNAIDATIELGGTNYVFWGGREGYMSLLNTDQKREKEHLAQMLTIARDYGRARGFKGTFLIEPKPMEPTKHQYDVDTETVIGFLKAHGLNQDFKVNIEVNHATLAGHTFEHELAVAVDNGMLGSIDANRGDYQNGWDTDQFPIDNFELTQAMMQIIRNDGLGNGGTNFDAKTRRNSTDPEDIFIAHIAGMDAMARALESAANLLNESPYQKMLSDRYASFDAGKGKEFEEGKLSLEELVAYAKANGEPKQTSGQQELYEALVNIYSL
Sequence of E. coli xylose isomerase (P00944 whole entry): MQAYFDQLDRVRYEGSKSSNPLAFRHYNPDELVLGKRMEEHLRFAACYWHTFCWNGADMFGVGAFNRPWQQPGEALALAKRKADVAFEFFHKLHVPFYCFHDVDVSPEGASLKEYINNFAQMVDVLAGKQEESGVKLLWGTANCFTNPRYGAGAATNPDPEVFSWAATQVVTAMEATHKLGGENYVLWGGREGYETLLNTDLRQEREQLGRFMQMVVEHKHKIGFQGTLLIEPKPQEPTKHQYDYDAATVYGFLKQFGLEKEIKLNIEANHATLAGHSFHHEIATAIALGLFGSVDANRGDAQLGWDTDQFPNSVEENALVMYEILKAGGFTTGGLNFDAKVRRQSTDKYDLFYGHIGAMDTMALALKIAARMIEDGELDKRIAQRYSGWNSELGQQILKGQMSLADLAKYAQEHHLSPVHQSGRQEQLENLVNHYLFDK

On to `OC[C@@H](O)[C@H](O)[C@@H](O)CO` [xylitol], for which, at E. coli xylose isomerase, the inhibition at 12500 µM was greater than 97%. Moreover, the “B. fragilis XI activity retained” value in test [1] is “at least 30%”.
